Experimental data as given in patent EP1210948B1, “THERAPEUTC PEPTIDE FOR NERVOUS DISEASES” (NIPPON CHEMIPHAR CO., LTD., priority 1999, dated 2007).
Where a SMILES comes first, the peptide text is derived from it.

What was measured:
[1] = test system: cells of rat cerebral cortex; test: Action on glutamate-induced neurocyte disorder (in vitro), propidium iodide staining; type: cell-based; conditions: for inhibitory action against neuronal death induced by glutamate: 4 day treatment, glutamate 1 mM
Protocol: The cerebral cortex of rat (0-day-old) was incubated at 37°C in a Hank's solution containing 1.5 mg/mL of dispase, and then cells were isolated. The neurocytes were dispersed on a poly-L-lysine-coated multiple well plate at a density of approx. 4 x 10^4 cells/cm^2, and then to the plate was added cytosine-β-arabinofuranoside (20 µM). The nerocytes were cultured on the plate for 4 days.
The nerocytes were identified by indirect fluorescent method using a neuro-filament antibody
The cultured neurocytes were washed with a Hank's solution and further incubated at 37°C for 30 minutes under atmospheric conditions. Incubated neurocytes were again incubated for 10 minutes in a Hank's solution containing glutamate. Then, they were washed, and further incubated for one hour. At 15 minutes before the incubation was complete, propidium iodide (4.6 µg/mL) was added. After the incubations were complete, the incubated neurocytes were washed with PBS (phosphate buffer solution containing sodium chloride), and then observed using fluorescence microscope.
The pGlu-Asn-Ser-Pro-Arg-Gly-NH2 acetate or AVP(4-9) was added to the 4 day-cultured solution prior to the glutamate treatment.

[2] = Toxicity test, subcutaneous injection; type: in vivo
Protocol: pGlu-Asn-Ser-Pro-Arg-Gly-NH2 acetate was subcutaneously injected to a SD strain rat at a dose of 1 mg/kg.

Question: For `N=C(N)NCCC[C@H](NC(=O)[C@@H]1CCCN1C(=O)[C@H](CO)NC(=O)[C@H](CC(N)=O)NC(=O)[C@@H]1CCC(=O)N1)C(=O)NCC(N)=O` [pGlu-Asn-Ser-Pro-Arg-Gly-NH2 acetate] (HELM PEPTIDE1{[Glp].N.S.P.R.G.[am]}$$$$V2.0), which “inhibitory action against neuronal death induced by glutamate” value ([1]; 0.1 nM test substance) is on record?
Answer: Its value is “showed an inhibitory action”.

Question: And the “inhibitory action against neuronal death induced by glutamate” value ([1]; 1 nM test substance)?
Answer: The value was “showed an inhibitory action”.

Question: And the “inhibitory action against glutamate toxicity in the presence of V1 receptor antagonist [Pmp^1, Tyr(Me)^2]AVP” value ([1]; [Pmp^1, Tyr(Me)^2]AVP 0.1 nM)?
Answer: The value was “reduced”.

Question: What about the “inhibitory action against glutamate toxicity in the presence of V1 receptor antagonist [Pmp^1, Tyr(Me)^2]AVP” value ([1]; [Pmp^1, Tyr(Me)^2]AVP 1 nM) of the same molecule?
Answer: Its value is “reduced”.

Question: What about the “changes observed after subcutaneous injection” value ([2]; rat, in vivo, sc, 1 mg/kg) of the same molecule?
Answer: The value was “No noticeable changes were observed”.

Question: For `N=C(N)NCCC[C@H](NC(=O)[C@@H]1CCCN1C(=O)[C@H](CO)NC(=O)[C@H](CC(N)=O)NC(=O)[C@@H]1CCC(=O)N1)C(=O)NCC(N)=O` [pGlu-Asn-Ser-Pro-Arg-Gly-NH2] (HELM PEPTIDE1{[Glp].N.S.P.R.G.[am]}$$$$V2.0), which “toxicity in the conventional toxicity test” value ([2]; summary statement) is on record?
Answer: Its value is “no specific toxicity”.

Question: For “[pGlu^4, Cyt^5] AVP (4-9) [AVP(4-9), reference compound]”, which “inhibition of the glutamate-induced neuronal death” value ([1]; 1 µM test substance) is on record?
Answer: The value was “inhibited”.

Question: What about the “inhibition of the glutamate-induced neuronal death” value ([1]; 10 µM test substance) of the same molecule?
Answer: Its value is “inhibited”.
